From patent publication US7410982B2, “Propanamine derivatives as serotonin and norepinephrine reuptake inhibitors” (Eli Lilly and Company, priority 2002, dated 2008)

melting point: 68.1 °C
SMILES: CNCC[C@@H](Oc1cncc2sccc12)c1ccccc1.Cl
